Ki and tumor size data for 24 compounds are collected here from patent publication US20240209005A1, “BICYCLIC HETEROARYL BORONATE DERIVATIVES AS ECTONUCLEOTIDE PYROPHOSPHATASE PHOSPHODIESTERASE 1 INHIBITORS” (RIBOSCIENCE LLC, priority 2021, published 2024).

SMILES strings stand for the structures.

For the first experiment, the target named is T1, ENPP1 (Homo sapiens, UniProt P22413).
T1 sequence (P22413 1-925): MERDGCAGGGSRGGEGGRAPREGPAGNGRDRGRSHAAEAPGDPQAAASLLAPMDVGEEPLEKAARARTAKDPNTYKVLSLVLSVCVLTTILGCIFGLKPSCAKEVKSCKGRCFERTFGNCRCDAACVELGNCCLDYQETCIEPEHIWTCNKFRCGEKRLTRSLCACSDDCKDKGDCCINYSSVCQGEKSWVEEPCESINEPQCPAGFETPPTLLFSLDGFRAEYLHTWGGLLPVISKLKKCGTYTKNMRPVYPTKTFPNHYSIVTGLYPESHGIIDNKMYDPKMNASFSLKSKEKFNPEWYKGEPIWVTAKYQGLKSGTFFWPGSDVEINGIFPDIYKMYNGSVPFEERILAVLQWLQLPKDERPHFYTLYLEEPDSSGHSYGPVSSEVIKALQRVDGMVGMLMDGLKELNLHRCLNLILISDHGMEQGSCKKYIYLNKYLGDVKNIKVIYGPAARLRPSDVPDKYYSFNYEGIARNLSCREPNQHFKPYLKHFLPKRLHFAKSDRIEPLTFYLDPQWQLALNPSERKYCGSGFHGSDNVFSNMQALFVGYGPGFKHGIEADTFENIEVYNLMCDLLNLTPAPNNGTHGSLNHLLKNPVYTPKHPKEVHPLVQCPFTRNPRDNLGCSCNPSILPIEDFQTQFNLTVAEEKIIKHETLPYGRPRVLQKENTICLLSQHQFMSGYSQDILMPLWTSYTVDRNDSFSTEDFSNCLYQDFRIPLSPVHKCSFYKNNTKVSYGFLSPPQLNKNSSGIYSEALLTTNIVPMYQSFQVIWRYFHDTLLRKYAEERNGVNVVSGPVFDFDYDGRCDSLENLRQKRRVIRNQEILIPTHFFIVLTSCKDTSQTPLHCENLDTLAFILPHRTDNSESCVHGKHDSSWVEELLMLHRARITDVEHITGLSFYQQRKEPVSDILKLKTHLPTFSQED
The experiment in a line: Measurement of pNP-TMP hydrolysis by ENPP1. Type of experiment: biochemical. The note with it: purified ENPP1, pNP-TMP substrate 500 μM, KM 232 μM; Ki calculated from IC50 by Cheng-Prusoff. As to the method:
p-Nitrophenyl thymidine 5′-monophosphate (pNP-TMP) is a synthesized substrate for ENPP1. The ENPP1 enzyme activity assay with pNP-TMP substrate was conducted as follows:
Incubation of ENPP1 with compounds was set at 25° C. for 10 min. […] For each compound dilution, wells with assay buffer (50 mM Tris-HCl, pH8.8, 250 mM NaCl, 0.1 mg/ml BSA, 1% DMSO) only but no ENPP1 were included as controls for subtraction of test compound derived absorbance at 405 nm.
Absorbance at 405 nm was recorded immediately in kinetic mode by PerkinElmer 2300 Enspire multimode plate reader.
For each inhibitor, the specific ENPP1 activity was calculated using the following equation: ENPP1 activity (pmol/min/g)=Adjusted Vmax (OD405 nm/min) X conversion factor (pmol/OD405 nm)/amount of enzyme (g)
Adjusted Vmax=V0×(Km+(S))/(S).
V0=(OD405 nm with ENPP1−OD405 nm ENPP1 blank)/minutes. OD405 nm was plotted, with blank subtracted, against time (minutes), the initial linear rate is V0. […]
The slope is the conversion factor. The percent ENPP1 activity for each sample was calculated using the following equation:
% enzyme activity=sample enzyme activity/MAX Activity×100%.
To determine the IC50 for each compound, compound concentration values and percent enzyme activity values were inserted into GraphPad Prism (GraphPad Prism version 7.0 for Windows, GraphPad Software, La Jolla California USA, www.graphpad.com), and Prism's Transform analysis was used to convert the x-axis values (compound concentration) to logarithms. A sigmoidal variable slope nonlinear regression analysis was performed using the following equation: Y=Bottom+(Top−Bottom)/(1+10^((LogIC50−X)*HillSlope)).
The term Ki denotes the equilibrium dissociation constant of an inhibitor or competing ligand from its target. On to `Cn1ncc2nc(/C=C/c3cccnc3)nc(NCc3ccc(B(O)O)cc3)c21` [compound 35, 4-[([1-methyl-5-[(E)-2-(pyridin-3-yl)ethenyl]pyrazolo[4,3-d]pyrimidin-7-yl]amino)methyl]phenylboronic acid], for which the Ki is under 100 nM.

As for `Cn1ncc2nc(-c3ccccc3)nc(NCc3ccc(B(O)O)cc3)c21` [compound 29, 4-[([1-methyl-5-phenylpyrazolo[4,3-d]pyrimidin-7-yl]-amino)-methyl]phenylboronic acid], the Ki is under 1000 nM.

For the compound `OB(O)c1ccc(CNc2ccnc3cn[nH]c23)cc1` [compound 37, 4-([1H-pyrazolo[4,3-b]pyridin-7-ylamino]methyl)phenyl-boronic acid], the Ki was under 100 nM.

Consider `Cn1ncc2nc(-c3ccccn3)nc(NCc3ccc(B(O)O)cc3)c21` [compound 30, 4-([[1-methyl-5-(pyridin-2-yl)pyrazolo[4,3-d]pyrimidin-7-yl]amino]-methyl)phenylboronic acid], for which the Ki was under 100 nM.

Turning to `Cn1ncc2nc(C=Cc3ccccc3)nc(NCc3ccc(B(O)O)cc3)c21` (mixture of isomers) [compound 34, 4-[([1-methyl-5-[2-phenylethenyl]pyrazolo[4,3-d]pyrimidin-7-yl]amino)-methyl]phenylboronic acid], the Ki is under 1000 nM.

`CN(C)C(=O)c1c[nH]c2c(NCc3ccc(B(O)O)cc3)ncnc12` [compound 11, 4-([[7-(dimethylcarbamoyl)-5H-pyrrolo[3,2-d]pyrimidin-4-yl]-amino]methyl)phenylboronic acid]: the Ki is under 1000 nM.

`Cn1ncc2nc(-c3cnccn3)nc(NCc3ccc(B(O)O)cc3)c21` [compound 33, 4-([[1-methyl-5-(pyrazin-2-yl)pyrazolo[4,3-d]pyrimidin-7-yl]amino]methyl)-phenylboronic acid]: the Ki is under 100 nM.

On to `CC(C)NC(=O)c1c[nH]c2c(NCc3ccc(B(O)O)cc3)ncnc12` [compound 14, 4-([[7-(isopropylcarbamoyl)-5H-pyrrolo[3,2-d]pyrimidin-4-yl]amino]methyl)phenylboronic acid], for which the Ki was under 1000 nM.

On to `CNC(=O)c1n[nH]c2c(NCc3ccc(B(O)O)cc3)ncnc12` [Cpd. 22], for which the Ki was over 10000 nM.

Regarding `OB(O)c1ccc(CNc2ncnc3nc[nH]c23)cc1` [compound 20, 4-[(7H-purin-6-ylamino)methyl]phenylboronic acid], the Ki was under 10000 nM.

For `CC(=O)Nc1csc2c(NCc3ccc(B(O)O)cc3)ncnc12` [Cpd. 8, 4-[([7-acetamidothieno[3,2-d]pyrimidin-4-yl]amino)-methyl]phenylboronic acid], the Ki is under 100 nM.

Regarding `N#Cc1csc2c(NCc3ccc(B(O)O)cc3)ncnc12` [compound 40, 4-[([7-cyanothieno[3,2-d]pyrimidin-4-yl]amino)-methyl]phenylboronic acid], the Ki was under 100 nM.

Consider `CCNC(=O)c1c[nH]c2c(NCc3ccc(B(O)O)cc3)ncnc12` [compound 10, 4-([[7-(ethylcarbamoyl)-5H-pyrrolo[3,2-d]pyrimidin-4-yl]-amino]methyl)phenylboronic acid; formic acid], for which the Ki is under 100 nM.

On to `Cn1ncc2ncnc(NCc3ccc(B(O)O)cc3)c21` [compound 18, 4-[([1-methylpyrazolo[4,3-d]pyrimidin-7-yl]amino)methyl]-phenylboronic acid], for which the Ki was under 100 nM.

On to `O=CNc1csc2c(C#Cc3ccc(B(O)O)cc3)ncnc12` [compound 36, 4-(2-[7-formamidothieno[3,2-d]pyrimidin-4-yl]ethynyl)-phenylboronic acid], for which the Ki was under 1000 nM.

For `CCC(=O)Nc1csc2c(NCc3ccc(B(O)O)cc3)ncnc12` [compound 3, 4-[([7-propanamidothieno[3,2-d]pyrimidin-4-yl]amino)-methyl]phenylboronic acid], the Ki was under 1000 nM.

On to `CC(=O)Nc1cn(C)c2c(NCc3ccc(B(O)O)cc3)ncnc12` [Cpd. 2, 4-[([7-acetamido-5-methylpyrrolo[3,2-d]pyrimidin-4-yl]-amino)methyl]phenylboronic acid], for which the inhibition constant (Ki) is under 1000 nM.

For `Cn1ccc2ncnc(NCc3ccc(B(O)O)cc3)c21` [compound 1, 4-[([5-methylpyrrolo[3,2-d]pyrimidin-4-yl]amino)-methyl]phenylboronic acid; formic acid], the Ki was under 100 nM.

As for `Cn1ncc2nc(-c3cccnc3)nc(NCc3ccc(B(O)O)cc3)c21` [compound 31, 4-([[1-methyl-5-(pyridin-3-yl)pyrazolo[4,3-d]pyrimidin-7-yl]amino]methyl)-phenylboronic acid], the Ki was under 1000 nM.

For `COC(=O)c1csc2c(NCc3ccc(B(O)O)cc3)ncnc12` [compound 38, 4-([[7-(methoxycarbonyl)thieno[3,2-d]pyrimidin-4-yl]-amino]methyl)-phenylboronic acid], the Ki is under 100 nM.

Consider `Cn1cnc2ncnc(NCc3ccc(B(O)O)cc3)c21` [compound 19, 4-[[(7-methylpurin-6-yl)amino]methyl]phenylboronic acid], for which the Ki is under 100 nM.

For the compound `CC(C)C(=O)Nc1csc2c(NCc3ccc(B(O)O)cc3)ncnc12` [compound 23, 4-([[7-(2-methylpropanamido)thieno[3,2-d]pyrimidin-4-yl]-amino]methyl)phenylboronic acid], the Ki is over 10000 nM.

For the compound `OB(O)c1ccc(CNc2ncnc3ccsc23)cc1` [compound 26, 4-([thieno[3,2-d]pyrimidin-4-ylamino]methyl)phenyl-boronic acid.], the Ki was under 100 nM.

A further experiment concerns HGS tumor model. The experiment in a line: Anti-tumor activity in HGS tumor model. Type of experiment: in vivo. The note with it: animals treated with 20/kg of compound, day 42 after inoculation.
Excerpt: […]
`C=CC(=O)N1CCN(CCCn2c(=O)c(-c3c(Cl)c(OC)cc(OC)c3Cl)cc3cnc(NC)nc32)CC1` [8-(3-(4-acryloylpiperazin-1-yl)propyl)-6-(2,6-dichloro-3,5-dimethoxyphenyl)-2-(methylamino)pyrido[2,3-d]pyrimidin-7(8H)-one] showed a tumor size of 55 mm3.
